± gives the expanded uncertainty stated by the source.
Columns and labels:
[1] = 101 kPa, Liquid, Vibrating tube method
[2] = refractive index (Na D-line) (dimensionless); conditions: 101.33 kPa, Liquid, Standard Abbe refractometry
[3] = xn = mol fraction of the nth substance listed; conditions: 101 kPa, Liquid, Vibrating tube method, x2 = 0
[4] = refractive index (Na D-line) (dimensionless); xn = mol fraction of the nth substance listed; conditions: 101 kPa, Liquid, Standard Abbe refractometry, x2 = 0

Row | SMILES | mass density ([1]; 283.15 K) | mass density ([1]; 288.15 K) | mass density ([1]; 293.15 K) | mass density ([1]; 298.15 K) | mass density ([1]; 303.15 K) | refractive index ([2]; 283.15 K) | refractive index ([2]; 288.15 K) | refractive index ([2]; 293.15 K) | refractive index ([2]; 298.15 K) | refractive index ([2]; 303.15 K) | mass density ([3]; 283.15 K) | mass density ([3]; 288.15 K) | mass density ([3]; 293.15 K) | mass density ([3]; 298.15 K) | mass density ([3]; 303.15 K) | refractive index ([4]; 283.15 K) | refractive index ([4]; 288.15 K) | refractive index ([4]; 293.15 K) | refractive index ([4]; 298.15 K) | refractive index ([4]; 303.15 K)
1 | C=C[Si](C)(C)O[Si](C)(C)C=C [1,3-diethenyl-1,1,3,3-tetramethyldisiloxane] | 822.67 ± 1 kg/m3 | 817.77 ± 1 kg/m3 | 812.92 ± 1 kg/m3 | 808 ± 1 kg/m3 | 803.07 ± 1 kg/m3 | 1.41766 ± 0.00032 | 1.415 ± 0.00032 | 1.41236 ± 0.00032 | 1.4097 ± 0.00032 | 1.40707 ± 0.00032 |  |  |  |  |  |  |  |  |  | 
2 | COc1ccccc1 [anisole] | 1003.3 ± 1 kg/m3 | 998.62 ± 1 kg/m3 | 994.01 ± 1 kg/m3 | 989.32 ± 1 kg/m3 | 984.59 ± 1 kg/m3 | 1.52242 ± 0.00031 | 1.51985 ± 0.00031 | 1.51724 ± 0.00031 | 1.5146 ± 0.00032 | 1.51191 ± 0.00032 |  |  |  |  |  |  |  |  |  | 
3 | COc1ccccc1 [anisole] + C=C[Si](C)(C)O[Si](C)(C)C=C |  |  |  |  |  |  |  |  |  |  | 1003.3 ± 1 kg/m3 | 998.62 ± 1 kg/m3 | 994.01 ± 1 kg/m3 | 989.32 ± 1 kg/m3 | 984.59 ± 1 kg/m3 | 1.52242 ± 0.00031 | 1.51985 ± 0.00031 | 1.51724 ± 0.00031 | 1.5146 ± 0.00032 | 1.51191 ± 0.00032
4 | Clc1ccccc1 [chlorobenzene] | 1117.29 ± 1 kg/m3 | 1111.89 ± 1 kg/m3 | 1106.55 ± 1 kg/m3 | 1101.16 ± 1 kg/m3 | 1095.79 ± 1 kg/m3 | 1.52992 ± 0.00032 | 1.52722 ± 0.00032 | 1.52446 ± 0.00032 | 1.52168 ± 0.00032 | 1.51893 ± 0.00032 |  |  |  |  |  |  |  |  |  | 
5 | Clc1ccccc1 [chlorobenzene] + C=C[Si](C)(C)O[Si](C)(C)C=C |  |  |  |  |  |  |  |  |  |  | 1117.29 ± 1 kg/m3 | 1111.89 ± 1 kg/m3 | 1106.55 ± 1 kg/m3 | 1101.16 ± 1 kg/m3 | 1095.79 ± 1 kg/m3 | 1.52992 ± 0.00032 | 1.52722 ± 0.00032 | 1.52446 ± 0.00032 | 1.52168 ± 0.00032 | 1.51893 ± 0.00032
6 | CCc1ccccc1 [ethylbenzene] | 875.69 ± 1 kg/m3 | 871.3 ± 1 kg/m3 | 866.9 ± 1 kg/m3 | 862.58 ± 1 kg/m3 | 858.16 ± 1 kg/m3 | 1.50118 ± 0.00032 | 1.49845 ± 0.00032 | 1.49575 ± 0.00032 | 1.49301 ± 0.00032 | 1.4903 ± 0.00032 |  |  |  |  |  |  |  |  |  | 
7 | CCc1ccccc1 [ethylbenzene] + C=C[Si](C)(C)O[Si](C)(C)C=C |  |  |  |  |  |  |  |  |  |  | 875.69 ± 1 kg/m3 | 871.3 ± 1 kg/m3 | 866.9 ± 1 kg/m3 | 862.58 ± 1 kg/m3 | 858.16 ± 1 kg/m3 | 1.50118 ± 0.00032 | 1.49845 ± 0.00032 | 1.49575 ± 0.00032 | 1.49301 ± 0.00032 | 1.4903 ± 0.00032
8 | Fc1ccccc1 [fluorobenzene] | 1036.89 ± 1 kg/m3 | 1030.93 ± 1 kg/m3 | 1024.96 ± 1 kg/m3 | 1019.07 ± 1 kg/m3 | 1013.03 ± 1 kg/m3 | 1.47152 ± 0.00032 | 1.46859 ± 0.00032 | 1.46571 ± 0.00032 | 1.46283 ± 0.00032 | 1.45989 ± 0.00032 |  |  |  |  |  |  |  |  |  | 
9 | Fc1ccccc1 [fluorobenzene] + C=C[Si](C)(C)O[Si](C)(C)C=C |  |  |  |  |  |  |  |  |  |  | 1036.89 ± 1 kg/m3 | 1030.93 ± 1 kg/m3 | 1024.96 ± 1 kg/m3 | 1019.07 ± 1 kg/m3 | 1013.03 ± 1 kg/m3 | 1.47152 ± 0.00032 | 1.46859 ± 0.00032 | 1.46571 ± 0.00032 | 1.46283 ± 0.00032 | 1.45989 ± 0.00032
10 | O=[N+]([O-])c1ccccc1 [nitrobenzene] | 1212.99 ± 1 kg/m3 | 1208.01 ± 1 kg/m3 | 1203.05 ± 1 kg/m3 | 1198.2 ± 1 kg/m3 | 1193.25 ± 1 kg/m3 | 1.55729 ± 0.00031 | 1.55485 ± 0.00031 | 1.55234 ± 0.00031 | 1.54992 ± 0.00031 | 1.54746 ± 0.00031 |  |  |  |  |  |  |  |  |  | 
11 | O=[N+]([O-])c1ccccc1 [nitrobenzene] + C=C[Si](C)(C)O[Si](C)(C)C=C |  |  |  |  |  |  |  |  |  |  | 1212.99 ± 1 kg/m3 | 1208.01 ± 1 kg/m3 | 1203.05 ± 1 kg/m3 | 1198.2 ± 1 kg/m3 | 1193.25 ± 1 kg/m3 | 1.55729 ± 0.00031 | 1.55485 ± 0.00031 | 1.55234 ± 0.00031 | 1.54992 ± 0.00031 | 1.54746 ± 0.00031

— the NIST ThermoML archive (doi:10.1016/j.jct.2013.12.025)
